# Where “and” joins values, the source holds several entries; their conditions need not be identical. Identical values can stand only once.
# Assays:
# Format in all cases: in vivo
# [1] = tested on: MMT/MCLT rat model of OA; experiment: MMT/MCLT trial 1 histopathology (same doses); set-up: key to Tibial cartilage degeneration score, 3-zone total: sum of three tibial zone scores (each on 5-point scale); key to Total joint score w/o femur / Total joint score / Total joint score without femur: sum: cartilage degeneration scores + mean osteophyte score; details: for % decrease, bone score / % decrease, femoral cartilage degeneration score / % decrease, osteophyte measure / % decrease, osteophyte score / % decrease, significant degeneration width / % decrease, tibial score 3-zone total / % decrease, tibial score zone 1 / % decrease, tibial score zone 2 / % decrease, tibial score zone 3 / % decrease, total degeneration width / % decrease, total joint score / % decrease, total joint score w/o femur: vs saline group
# In short: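 Rat knee joints were sectioned in 200-μm steps and stained with toluidine blue. Tibial cartilage degeneration was scored on a 5-point scale in three zones and summed with femoral scores, plus osteophyte scores, to give a total joint score. Results were averaged over three sections.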
# [2] = tested on: MIA rat model of OA; experiment: MIA trial 1 weight bearing (daily s.c. clonidine 0.1, fluocinolone 0.002, morphine 6 mg/kg); details: day 21; BL baseline
# Protocol: Weight bearing (WB; incapacitance) was measured five times per day, once per week, using a Linton incapacitance meter (Stoelting Co., Wood Dale, IL, USA). Rats were acclimated to the meter before study initiation, and, similarly, immediately before WB, the animals were placed in the meter and allowed to acclimate for 2–5 minutes. Each hind paw was placed on a separate force plate so that the force exerted by each side could be averaged over a 5-second interval, and the mean of three readings was taken for each data point. Right paw force was compared with that on the left side for each group to confirm that animals were displaying incapacitance and/or pain behavior. Differences in force (left minus right) and right paw force as a percentage of the total force exerted by both paws were determined and compared between groups.
# Following isoflurane anesthesia, 50 μl (2 mg) of MIA was injected into the synovial space of the left knee. Animals were randomly assigned to groups, and pain behavior was assessed 7, 14, 21, and 28 days following MIA injection and intervention using WB with the Stoelting incapacitance meter (trial 1) or the dRS test (trials 2 and 3). […] Animals received MIA treatment and then saline control or therapeutic. […] Histopathology was performed at each time point and at study termination. All studies were conducted in accordance with the International Association for the Study of Pain Guidelines and were approved by the Algos Therapeutics, Inc. Institutional Animal Care and Use Committee (IACUC) before initiation. Those running the studies were blind to the treatments. See Additional file 1 for further details. […]
# dosing were housed three per cage. Animals had free access to food and water and were maintained […]
# The animal colony was maintained at approximately 21 °C. All experiments were conducted in accordance with the International Association for the Study of Pain Guidelines.
# [3] = tested on: MMT/MCLT rat model of OA; experiment: MMT/MCLT trial 2 histopathology (same doses); set-up: key to Total joint score w/o femur / Total joint score: sum: cartilage degeneration scores + mean osteophyte score; details: mean; i.a., tacrolimus 15 ng
# Description: For MMT/MCLT rat knee joints, sections were cut in 200-μm steps; stained with toluidine blue (also with a right and left half per section); and similarly analyzed for cartilage degeneration, proteoglycan loss, collagen damage, and osteophyte formation. Results were averaged across the three sections for an overall semiquantitative score. Regional differences across the tibial plateau were taken into consideration by dividing each section into three zones delineated using an ocular micrometer (outside, middle, and inside). Scores were based on the percentage of area affected within the zone.
# Cartilage degeneration in the tibia was scored on a 5-point scale as detailed in the Methods section of Additional file 1. The total extent of degeneration of the tibial plateau was measured (in micrometers) and included an analysis of cell loss, proteoglycan loss, and collagen damage. Significant cartilage degeneration reflecting any degeneration extending through more than 50 % of the cartilage thickness was also measured. Collagen damage across the medial tibial plateau (the most severely affected section of the two halves) was also quantified.
# Osteophytes and femoral cartilage degeneration were analyzed as detailed in Additional file 1. Scoring of the osteophytes and categorization into small, medium, and large was performed using an ocular micrometer. The actual osteophyte measurement (tidemark to farthest distance point extending toward the synovium) was also recorded. The femoral cartilage degeneration score and the three-zone sum of the tibial cartilage degeneration scores (mean of three levels) were summed to create a total cartilage degeneration score. The mean osteophyte score for each joint was added to this value to create a total joint score. […]
# Histopathology MMT/MCLT Model
# [4] = individual animals, fluocinolone 10 μg/kg, 21 days
# [5] = mean, tacrolimus 0.6 mg/kg, fluocinolone 10 μg/kg
# [6] = mean, tacrolimus 0.6 mg/kg, fluocinolone 10 μg/kg, listed as fluocinolone
# [7] = vs group 1, fluocinolone 10 μg/kg
# [8] = tacrolimus 0.6 mg/kg, fluocinolone 10 μg/kg
structure (smiles),measurement,setting,value
"CC1(C)O[C@@H]2C[C@H]3[C@@H]4C[C@H](F)C5=CC(=O)C=C[C@]5(C)[C@@]4(F)[C@@H](O)C[C@]3(C)[C@]2(C(=O)CO)O1 [Fluocinolone, Fluocinolone Acetonide]",Bone score,[1]; [4],3.00 and 2.00 and 4.00 and 1.00
same,Femoral cartilage degeneration score,[1]; [4],1.00 and 2.00 and 3.00 and 2.33 and 1.33
same,"Tibial cartilage degeneration score, 3-zone total",[1]; [4],4.67 and 5.00 and 6.33 and 7.00 and 7.67 and 5.33 and 6.00
same,"Tibial cartilage degeneration score, zone 1",[1]; [4],3.00 and 4.33 and 3.33 and 4.67 and 4.00
same,"Tibial cartilage degeneration score, zone 2",[1]; [4],1.67 and 2.00 and 1.33 and 2.33 and 2.67
same,"Tibial cartilage degeneration score, zone 3",[1]; [4],0.00 and 0.33
same,"Tibial cartilage degeneration width, significant",[1]; [4],466.67 μm and 433.33 μm and 633.33 μm and 766.67 μm and 800.00 μm and 566.67 μm and 666.67 μm
same,"Tibial cartilage degeneration width, total",[1]; [4],1400.00 μm and 1066.67 μm and 1133.33 μm and 1000.00 μm and 1600.00 μm and 1266.67 μm and 1100.00 μm
same,Tibial osteophyte measure,[1]; [4],333.33 μm and 413.33 μm and 280.00 μm and 426.67 μm and 586.67 μm and 400.00 μm and 380.00 μm
same,Tibial osteophyte score,[1]; [4],2.00 and 2.33 and 3.00 and 1.33 and 4.67 and 2.67
same,Total joint score,[1]; [4],7.67 and 8.33 and 11.33 and 9.00 and 12.33 and 15.33 and 9.67 and 10.67
same,Total joint score without femur,[1]; [4],6.67 and 7.33 and 9.33 and 6.00 and 10.00 and 12.33 and 8.33 and 8.67
same,Bone score,"[1]; mean, low or only dose",2.38
same,Femoral cartilage degeneration score,"[1]; mean, low or only dose",1.33 and 1.33 ± 0.14
same,"Tibial cartilage degeneration score, 3-zone total","[1]; mean, low or only dose",6.08
same,"Tibial cartilage degeneration score, zone 1","[1]; mean, low or only dose",4.17
same,"Tibial cartilage degeneration score, zone 2","[1]; mean, low or only dose",1.88
same,"Tibial cartilage degeneration score, zone 3","[1]; mean, low or only dose",0.04
same,"Tibial cartilage degeneration width, significant","[1]; mean, low or only dose",608.33 µm
same,"Tibial cartilage degeneration width, total","[1]; mean, low or only dose",1154.17 µm
same,Tibial osteophyte measure,"[1]; mean, low or only dose",455.00 µm
same,Tibial osteophyte score,"[1]; mean, low or only dose",3.33
same,Total joint score,"[1]; mean, low or only dose",10.75 and 10.75 ± 0.61
same,Total joint score w/o femur,"[1]; mean, low or only dose",9.42
same,Bone score,[1]; [5],2.63
same,Femoral cartilage degeneration score,[1]; [5],1.96 ± 0.77
same,"Tibial cartilage degeneration score, 3-zone total",[1]; [5],5.83
same,"Tibial cartilage degeneration score, zone 1",[1]; [5],3.88
same,"Tibial cartilage degeneration score, zone 2",[1]; [5],1.92
same,"Tibial cartilage degeneration score, zone 3",[1]; [5],0.04
same,"Tibial cartilage degeneration width, significant",[1]; [5],595.83 μm
same,"Tibial cartilage degeneration width, total",[1]; [5],1212.50 μm
same,Tibial osteophyte measure,[1]; [5],394.17 μm
same,Tibial osteophyte score,[1]; [5],2.75
same,Total joint score,[1]; [5],10.54 ± 0.88
same,Total joint score w/o femur,[1]; [5],8.58
same,Femoral cartilage degeneration score,[1]; [6],1.96
same,Total joint score,[1]; [6],10.54
same,"% increase, area of viable cartilage matrix","[1]; tacrolimus 0.3 mg/kg, fluocinolone 5 ug/kg",17%
same,"% increase, area of viable cartilage matrix","[1]; tacrolimus 0.6 mg/kg, fluocinolone 10 ug/kg",20%
same,"Percentage, bone score",[1]; [7],0.19
same,"Percentage, femoral cartilage degeneration score",[1]; [7],−0.07
same,"Percentage, osteophyte measure",[1]; [7],0.23
same,"Percentage, osteophyte score",[1]; [7],0.30
same,"Percentage, significant degeneration width",[1]; [7],0.18
same,"Percentage, tibial score zone 1",[1]; [7],0.10
same,"Percentage, tibial score zone 2",[1]; [7],0.13
same,"Percentage, tibial score zone 3",[1]; [7],0.00
same,"Percentage, total degeneration width",[1]; [7],0.08
same,"Percentage, total joint score",[1]; [7],0.14
same,"Percentage, total joint score without femur",[1]; [7],0.18
same,"% decrease, bone score",[1]; low or only dose,27%
same,"% decrease, femoral cartilage degeneration score",[1]; low or only dose,27%
same,"% decrease, osteophyte measure",[1]; low or only dose,11%
same,"% decrease, osteophyte score",[1]; low or only dose,15%
same,"% decrease, significant degeneration width",[1]; low or only dose,16%
same,"% decrease, tibial score 3-zone total",[1]; low or only dose,7%
same,"% decrease, tibial score zone 1",[1]; low or only dose,3%
same,"% decrease, tibial score zone 2",[1]; low or only dose,15%
same,"% decrease, tibial score zone 3",[1]; low or only dose,0%
same,"% decrease, total degeneration width",[1]; low or only dose,12%
same,"% decrease, total joint score",[1]; low or only dose,13%
same,"% decrease, total joint score w/o femur",[1]; low or only dose,10%
same,"% decrease, bone score",[1]; [8],19%
same,"% decrease, femoral cartilage degeneration score",[1]; [8],-7%
same,"% decrease, osteophyte measure",[1]; [8],23%
same,"% decrease, osteophyte score",[1]; [8],30%
same,"% decrease, significant degeneration width",[1]; [8],18%
same,"% decrease, tibial score 3-zone total",[1]; [8],11%
same,"% decrease, tibial score zone 1",[1]; [8],10%
same,"% decrease, tibial score zone 2",[1]; [8],13%
same,"% decrease, tibial score zone 3",[1]; [8],0%
same,"% decrease, total degeneration width",[1]; [8],8%
same,"% decrease, total joint score",[1]; [8],14%
same,"% decrease, total joint score w/o femur",[1]; [8],18%
same,"Weight bearing, hours after dosing with significant difference",[2],"BL^b, 1"
same,Femoral cartilage degeneration score,[3],0.8 ± 0.25
same,Total joint score,[3],9.80 ± 0.51

# Source: paper PMC4721142, “Randomized controlled studies on the efficacy of antiarthritic agents in inhibiting cartilage degeneration and pain associated with progression of osteoarthritis in the rat” (Arthritis Research & Therapy, 2016)
